The values below come from patent publication EP4703362A1 (Chengdu Sibeibo Pharmaceutical Technology Co., Ltd, priority 2023, dated 2024).

Where two headings read alike, the source gives them in different places.

Data set [1] in a line: plasma protein binding rate test, equilibrium dialysis (monkey). The note with it: 1 µM, 6 hours, 37°C. The class given is in vitro ADME, cynomolgus monkey. As to the method: (§1) Protein binding rates of the compound of the present invention in plasma of rat, monkey and human were determined by an equilibrium dialysis method. Tested compounds of the present invention were the compounds in Examples 6, 8 and 29, and a control drug was Zavegepant.
(§2) 3.1 A dry dialysis membrane was rinsed with ultrapure water for 2-3 times, and then soaked in a phosphate buffer for 1 hour for later use. Polytetrafluoroethylene module was soaked in 20% ethanol for 30 minutes, and then surface moisture was dried with dust-free paper for later use. The pretreated dialysis membrane was assembled into a dialysis plate according to the product specification, and one side (receptor compartment) of an osmotic membrane in each dialysis well was added with 100 µL of receptor fluid (100 mM phosphate buffer solution plus 0.002% Tween 80).
(§3) 3.2 The plasma was put into a centrifuge tube, a working solution of a tested substance was added into the plasma, wherein a final concentration was 1 µM, and the mixture was turned upside down and mixed evenly (this step was carried out in ice bath). 20 µL of drug-containing plasma each was taken, and was respectively transferred to a 96-well sample plate according to two parts in parallel, and stored in a refrigerator at -20°C as a T0 sample.
(§4) 3.3 Another 100 µL of the above drug-containing plasma was transferred to the other side (sample compartment) of the membrane in the dialysis device according to two parts in parallel, and incubated under vibration at a constant temperature of 37°C for 6 hours. After 6 hours of incubation, 20 µL of the plasma was respectively taken out from the receptor compartment and the sample compartment after equilibration to obtain samples B and A. The samples B and A were respectively added with corresponding volumes of corresponding blank plasma or phosphate buffer solution (containing 0.002% Tween 80), so that a volume ratio of the plasma to the buffer solution in each sample well was 1: 1.
(§5) 3.4 All sample wells were added with 250 µL of methanol solution containing an internal standard, mixed evenly and then centrifuged in a centrifuge at 3800 rpm for 10 minutes. […]
(§6) A plasma protein binding rate and a recovery rate of the compound in plasma were calculated by the following formulas: dissociation percentage (%) = CB /CA; [formula] plasma protein binding rate (fb%) = 1−dissociation percentage (%); [formula] recovery rate (%) = (CB+CA)/CT0 [formula] wherein CB was a concentration of the compound in the receptor fluid after equilibrium dialysis; CA was a concentration of the compound in the drug-containing plasma after equilibrium dialysis; and CT0 was an initial concentration of the compound in plasma.
A general note: In equilibrium dialysis free small molecules cross a membrane that holds back macromolecules.

The nature of data set [2]: in-vivo pharmacokinetic study on SD rats, intravenous and intranasal administration. The note with it: for AUC / bioavailability / half-life / Vd / Cmax: rat, plasma; for AUC: read-out: Area under curve AUC; for bioavailability: read-out: Bioavailability F%; for half-life: read-out: Half-life period t1/2 (converted); for Vd: read-out: Volume of distribution steady-state Vss; for Cmax: read-out: Concentration to peak Cmax. As to the method: Species: SD rats, male, SPF level.
2.1 An appropriate amount of drug was accurately weighed and added with 50 mM succinate buffer (diluted with D5W, pH=5-6), and mixed evenly and dissolved fully in an ultrasonic and vortexed mode to obtain a 0.2 mg/mL drug solution for intravenous (IV) administration.
2.2 An appropriate amount of drug was accurately weighed and added with 50 mM succinate buffer (diluted with pure water, pH=5-6), and mixed evenly and dissolved fully in an ultrasonic and vortexed mode to obtain a 10 mg/mL drug solution for intranasal (IN) administration.
5 minutes, 10 minutes, 15 minutes, 0.5 hour, 1 hour, 2 hours, 4 hours, 8 hours and 24 hours after administration.
Blood was collected through a jugular vein, about 0.2 mL of each sample was collected, EDTA-K2 was used for anticoagulation, the collected blood sample was placed on ice, and plasma was centrifugally separated within 2 hours (at 6000 g and 2-8°C for 5 minutes). The collected plasma samples were stored in a refrigerator at -80°C before analysis, and the remaining plasma samples after analysis were continuously stored in the refrigerator at -80°C for temporary storage.
A concentration of a specified compound in plasma was determined by an LC-MS/MS method, and main pharmacokinetic parameters were calculated by a Winnolin 8.3 non-compartmental model.

Data set [3] can be described thus: stability test in liver microsomes (human). The class given is in vitro ADME. As to the method: (§7) The stability of the compound of the present invention in liver microsomes of rat, monkey and human was determined. Tested compounds of the present invention were the compounds in Examples 6, 8 and 29, and a control drug was Zavegepant.
(§8) 3.2 An appropriate amount of liver microsome solution was transferred into a 1 mL 96-deep-well plate, added with a tested drug liquid (or a probe substrate solution), and pre-incubated in a thermal mixer at 37°C for 5 minutes. Two parts of mixed solutions were taken out from the system and added with 1×PBS to replace NADPH, and the mixed solutions were taken out at 0 and 60 minutes respectively, and added with methanol (containing an internal standard) to terminate the reaction. In the remaining mixed system, each well was added with NADPH to start the reaction. In the tested substance group, mixed solutions were taken out from the system at 0, 5, 15, 30, 45 and 60 minutes, and in the control group, mixed solutions were taken out from the system at 0, 30 and 60 minutes, and the mixed solutions were added methanol (containing an internal standard) to terminate the reaction. All samples of the terminated reaction were mixed evenly and centrifuged in a centrifuge at 3800 rpm for 15 minutes, and the supernatant was taken for LC-MS/MS analysis.
(§9) A peak area was determined by an extracted ion chromatogram. A slope value k was determined by linear regression of a remaining percentage of a parent drug relative to a natural logarithm of an incubation time curve. According to the slope, in-vitro half-life periods (t1/2) were respectively calculated, and in-vitro intrinsic clearance rates (CLint, represented by µL/min/mg protein) were calculated. Calculation formulas were as follows: t1/2 = ln2/k = 0.693/k; and CLint = 0.693/t1/2 /liver microsome protein concentration [formula]
For orientation: Microsomes from liver hold many membrane-bound enzymes, among them those of drug oxidation.

The nature of data set [4]: stability test in liver microsomes (rat). The class given is in vitro ADME. As to the method:
as §7, §8, §9

Data set [5] can be described thus: plasma protein binding rate test, equilibrium dialysis (human). The note with it: 1 µM, 6 hours, 37°C. The class given is in vitro ADME. The method, then: as §1, §2, §3, §4, §5, §6
For data set [6], the system named is capsaicin-induced change of blood flow in forearm skin of cynomolgus monkeys. Kind of data set: in-vivo pharmacodynamic study, capsaicin-induced change of blood flow in forearm skin. As to conditions: 0.05 mg/kg IV, 10 minutes after capsaicin treatment. As to the method:
• 2.1Animal information: Species and strain: cynomolgus monkeys, male (5-8 kg), animal license: SYXK(Su)2019-0004, depilated 3 days before the experiment. • 2.2Preparation of test sample: An appropriate amount of drug was accurately weighed and dissolved in sterile saline solution, and mixed evenly and dissolved fully in an ultrasonic and vortexed mode to obtain a 0.05 mg/ml drug solution for intravenous (IV) administration. • 2.3In a pre-test stage, a blood flow in a forearm of an anesthetized animal was scanned by a blood flow meter, and an O-shaped rubber ring was placed on an inner side of the arm, avoiding obvious blood vessels.

Data set [7] is described as follows: stability test in liver microsomes (monkey). The class given is in vitro ADME. As to the method:
as §7, §8, §9

A short description of data set [8]: plasma protein binding rate test, equilibrium dialysis (rat). As to conditions: 1 µM, 6 hours, 37°C. Type of data set: in vitro ADME, SD rat. The method, then: as §1, §2, §3, §4, §5, §6
For a further data set, the target named is T1, CGRP receptor (Homo sapiens, UniProt O60894+Q16602).
T1 construct: A tissue homogenate of SK-N-MC cell membrane was used as a receptor source; host or cells: SK-N-MC (membrane preparation)
Kind of data set: Competitive binding determination of in-vitro [125I] CGRP. The note with it: competition with 125I-CGRP (Human) 200 pM, SK-N-MC cell membrane.

[9] abbreviates: male, other: intranasal, IN@2 mg/kg.

The term AUC denotes concentration integrated over time. Broadly, the bioavailability is the share of a dose that reaches the circulation, judged against a reference dose that is usually intravenous. As usually defined, the microsomal CLint is the capacity of the preparation to metabolise the compound, expressed as a volume cleared per time. In the case of `Cc1cc(C[C@@H](NC(=O)N2CCC(c3cc4c([nH]c3=O)SCCC4)CC2)C(=O)N2CCN(C3CCN(C)CC3)CC2)cc2cn[nH]c12` [Example 6, (R)-N-(3-(7-methyl-1H-indazole-5-yl)-1-(4-(1-methylpiperidine-4-yl)piperazine-1-yl)-1-oxopropan-2-yl)-4-(7-oxo-3,4,7,8-tetrahydro-2H-thiopyrano[2,3-b]pyridine-6-yl)piperidine-1-for mamide], in data set [1], the “fb (%)” value is given as 61.3%. In addition, in [2] (IN@2 mg/kg), the AUC came to 2.4 µg·h/mL, the bioavailability came out at 20.1% and the half-life was 3.8 h. Also, in data set [2] (IV@1 mg/kg), the AUC is 5.99 µg·h/mL, the half-life was 2.52 h and the Vd was 0.29 L/kg. In [3], the half-life at 1 µM was more than 2 h and the “% remaining (60 min)” value came out at 131%. For the same compound, in data set [4], the half-life at 1 µM is more than 2 h, the microsomal CLint at 1 µM is 2.4 µL/min/mg and the “% remaining (60 min)” value worked out at 91.5%. The “fb (%)” value in [5] is on record as 76.7%. For the same compound, the “blood flow inhibition rate (Mean)” value in [6] came out at 355.3%. In [7], the half-life at 1 µM was more than 2 h, the microsomal CLint at 1 µM came to 0.8 µL/min/mg and the “% remaining (60 min)” value came out at 96.9%. Also, the “fb (%)” value in [8] was 90.0%.

In the case of `Cc1cc(C[C@@H](NC(=O)N2CCC(c3cc4c([nH]c3=O)SCC4)CC2)C(=O)N2CCN(C3CCN(C)CC3)CC2)cc2cn[nH]c12` [Example 8, (R)-N-(3-(7-methyl-1H-indazole-5-yl)-1-(4-(1-methylpiperidine-4-yl)piperazine-1-yl)-1-oxopropan-2-yl)-4-(6-oxo-2,3,6,7-tetrahydrothieno[2,3-b]pyridine-5-yl)piperidine-1-formamide], in [1], the “fb (%)” value was determined as 47.7%. In data set [2] (IV@1 mg/kg), the “Apparent clearance CL” value amounted to 0.356 L/h/kg. For the same compound, in data set [2] (male, IV@1 mg/kg), the AUC turned out to be 2.85 µg·h/mL, the half-life was 7.58 h and the Vd is 0.5 L/kg. Besides, in [2] (setting [9]), the area under the curve (AUC) was found to be 0.626 µg·h/mL, the bioavailability was determined as 11%, the Cmax turned out to be 0.204 µg/mL and the half-life was 3.41 h. For the same compound, in data set [3], the half-life at 1 µM was more than 2 h, the microsomal CLint at 1 µM was determined as 3.2 µL/min/mg and the “% remaining (60 min)” value amounted to 85.8%. Moreover, in data set [4], the half-life at 1 µM was more than 2 h, the microsomal CLint at 1 µM turned out to be 1.6 µL/min/mg and the “% remaining (60 min)” value worked out at 90.7%. The “fb (%)” value in data set [5] is 64.1%. Besides, in [7], the half-life at 1 µM was 1.48 h, the intrinsic metabolic clearance (microsomal CLint) at 1 µM is 15.6 µL/min/mg and the “% remaining (60 min)” value amounted to 61.6%. In data set [8], the “fb (%)” value was 69.4%.

As to `[2H]C([2H])([2H])N1CCC(N2CCN(C(=O)[C@@H](Cc3cc(C)c4[nH]ncc4c3)NC(=O)N3CCC(c4cc5c([nH]c4=O)SCC5)CC3)CC2)CC1` [Example 29, (R)-N-(3-(7-methyl-1H-indazole-5-yl)-1-(4-(1-(methyl-d3)piperidine-4-yl)piperazine-1-yl)-1-oxopropan-2-yl)-4-(6-oxo-2,3,6,7-tetrahydrothieno[2,3-b]pyridine-5-yl)piperidine-1-formamide], the “fb (%)” value was found to be 56.1% in data set [1], 50.2% in [5] and 64.3% in [8]. Further, the results for the “% remaining (60 min)” value in data set [3], in data set [4] and in [7] were 115%, 105% and 98.9%, respectively.

As usually defined, the Ki is a dissociation constant, usually derived from enzyme kinetics or from competition with a known ligand. `Cc1cc(C[C@@H](NC(=O)N2CCC(c3cc4ccccc4[nH]c3=O)CC2)C(=O)N2CCN(C3CCN(C)CC3)CC2)cc2cn[nH]c12` [Zavegepant, zavegepant, reference compound]: in data set [1], the “fb (%)” value turned out to be 78.5%. Also, the “Apparent clearance CL” value in data set [2] (IV@1 mg/kg) amounted to 0.275 L/h/kg. Besides, in [2] (male, IV@1 mg/kg), the AUC worked out at 3.62 µg·h/mL, the half-life is 2.58 h and the Vd is 0.35 L/kg. For the same compound, in data set [2] (setting [9]), the AUC was determined as 0.385 µg·h/mL, the bioavailability was determined as 5.31%, the Cmax is 0.645 µg/mL and the half-life was 1.08 h. For the same compound, in data set [3], the half-life at 1 µM is 1.11 h, the microsomal CLint at 1 µM was found to be 20.8 µL/min/mg and the “% remaining (60 min)” value turned out to be 57.5%. Besides, in data set [4], the half-life at 1 µM was more than 2 h, the microsomal CLint at 1 µM amounted to 2.8 µL/min/mg and the “% remaining (60 min)” value stood at 95.5%. At CGRP receptor, this compound had a Ki of 0.0498 nM. Also, the “fb (%)” value in data set [5] is 82.0%. Besides, the “blood flow inhibition rate (Mean)” value in [6] is 89.7%. Besides, in data set [7], the half-life at 1 µM was found to be 1.78 h, the microsomal CLint at 1 µM came to 13 µL/min/mg and the “% remaining (60 min)” value worked out at 72.1%. Moreover, the “fb (%)” value in data set [8] amounted to 92.7%.
